Columns and labels:
[1] = target: T1, vascular endothelial growth factor receptor-2 (VEGFR2) cytoplasmic domain (Homo sapiens, UniProt P35968); experiment: Vascular Endothelial Growth Factor Receptor-2 kinase inhibition assay (TRF); format: biochemical; conditions: 300 nM compound; 40 μM ATP; read-out: VEGFR-2 % inhibition @ 300 nM
T1 construct: recombinant baculovirus-expressed vascular endothelial growth factor receptor-2 (VEGFR2) cytoplasmic domain; made in house
Procedure: Compounds were tested for their ability to inhibit the kinase activity of recombinant baculovirus-expressed vascular endothelial growth factor receptor-2 (VEGFR2) cytoplasmic domain using the time-resolved fluorescence (TRF) detection system. IC50s were conducted in 96-well Costar high binding plates (Corning Costar #3922, Corning, N.Y.). Briefly, each 96-well plate was coated with 100 μL/well of 10 μg/mL recombinant substrate, glutathione S-transferase-phospholipase C-γ fusion protein (GST-PLCγ Lot # 3P5.1A), in Tris-buffered saline (TBS). The VEGFR2 assay mixture (total volume=100 μL/well) consisting of 20 mM HEPES, pH 7.2, 40 μM ATP, 10 mM MnCl2, 0.1% bovine serum albumin (BSA), and test compound (diluted in DMSO; 2.5% DMSO final in assay) was then added to the assay plate. Enzyme (30 ng/mL VEGFR2 Lot # V2g-2.1A) was added and the reaction was allowed to proceed at 37° C. for 15 minutes. Detection of the phosphorylated product was performed by adding 100 μL/well of Eu-N1 labeled PY100 antibody (PerkinElmer Life Sciences #AD0160, Boston, Mass.) diluted 1:5000 in 0.25% BSA in TBS containing 0.05% Tween-20 (TBS-T). Incubation at 37° C. then proceeded for 1 hour, followed by addition of 100 μL enhancement solution (PerkinElmer Life Sciences #1244-105, Boston, Mass.). The plate was gently agitated and after 30 minutes, the fluorescence of the resulting solution was measured using the PerkinElmer EnVision 2100 (or 2102) multilabel plate reader.

MLK1 (GST-MLK1KD) = target: T2, MLK1 (GST-MLK1KD) (Homo sapiens, UniProt P80192); experiment: Mixed Lineage Kinase-1 inhibition assay (32P, myelin basic protein); format: biochemical; conditions: 60 μM ATP; for inhibition at 1 µM: 1 uM compound, read-out: MLK-1 % inhibition @ 1 uM; for IC50: read-out: MLK-1 IC50
T2 construct: 1 μg/mL of baculoviral GST-MLK1KD (Lot 23.1A); GST; made in house
T2 sequence (P80192 144-412 limits assumed, species assumed): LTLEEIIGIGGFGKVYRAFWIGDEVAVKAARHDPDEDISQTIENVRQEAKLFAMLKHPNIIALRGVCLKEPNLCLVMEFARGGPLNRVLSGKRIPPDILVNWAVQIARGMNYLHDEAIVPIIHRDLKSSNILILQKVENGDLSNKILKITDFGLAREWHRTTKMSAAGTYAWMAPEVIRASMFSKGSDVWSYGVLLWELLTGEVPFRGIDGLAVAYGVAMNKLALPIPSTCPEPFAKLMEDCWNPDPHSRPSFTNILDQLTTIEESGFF
Procedure: The activity assay for MLK1 was performed using the 96-well Millipore Multiscreen plate format. Each 50-μL assay mixture contained 50 mM HEPES (pH 7.0), 1 mM EGTA, 10 mM MgCl2, 1 mM DTT, 25 mM β-glycerophosphate, 60 μM ATP, 1 μCi [γ-^32P]ATP, 0.1% BSA, 500 μg/mL myelin basic protein (Upstate #13-104), 2% DMSO, various concentrations of test compound, and 1 μg/mL of baculoviral GST-MLK1KD (Lot 23.1A). Samples were incubated for 15 minutes at 37° C. The reaction was stopped by adding ice-cold 50% trichloroacetic acid (TCA) and the proteins were allowed to precipitate for 30 minutes at 4° C. The plates were then washed with ice-cold 25% TCA. Supermix scintillation cocktail was added, and the plates were allowed to equilibrate for 1-2 hours prior to counting in the Wallac MicroBeta 1450 Plus scintillation counter.

CDK5/GST-p25 = CDK5/GST-p25 (Homo sapiens, UniProt Q00535); experiment: Cyclin-Dependent Kinase 5 inhibition assay (TRF); format: biochemical; conditions: 10 μM ATP; read-out: CDK-5 IC50
CDK5/GST-p25, sequence (Q00535 whole entry, species assumed): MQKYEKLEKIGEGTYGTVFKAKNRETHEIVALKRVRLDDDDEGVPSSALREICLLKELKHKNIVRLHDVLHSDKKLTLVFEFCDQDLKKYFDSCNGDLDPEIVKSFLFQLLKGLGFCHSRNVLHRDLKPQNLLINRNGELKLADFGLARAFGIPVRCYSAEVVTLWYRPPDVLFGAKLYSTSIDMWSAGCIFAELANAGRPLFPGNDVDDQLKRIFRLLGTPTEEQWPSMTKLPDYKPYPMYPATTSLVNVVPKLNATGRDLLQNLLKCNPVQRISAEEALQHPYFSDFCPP
CDK5/GST-p25, sequence (Q15078 99-307 partner limits assumed, species assumed): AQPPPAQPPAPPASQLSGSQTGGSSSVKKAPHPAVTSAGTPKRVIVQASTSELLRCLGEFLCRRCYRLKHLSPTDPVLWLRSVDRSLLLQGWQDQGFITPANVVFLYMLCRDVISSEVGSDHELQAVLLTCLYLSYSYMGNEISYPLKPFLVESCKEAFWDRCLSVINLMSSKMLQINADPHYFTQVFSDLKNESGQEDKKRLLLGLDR
Procedure: Compounds were tested for their ability to inhibit the kinase activity of baculovirus-expressed cyclin-dependent kinase-5 complexed with GST-p25 (CDK5/GST-p25) using a a TRF detection system. Each 96-well Costar high binding plate (Corning Costar #3922, Corning, N.Y.) was coated with 100 μL/well of 50 μg/mL recombinant GST-tagged substrate [GST-retinoblastoma protein (Rb) Lot # 5.1A] in TBS. The CDK5/GST-p25 assay mixture (total volume=100 μL/well) consisting of 20 mM HEPES, pH 7.2, 10 μM ATP, 10 mM MgCl2, 5 mM EGTA, 25 mM β-glycerophosphate, 0.1% BSA, 2.5% DMSO, and various concentrations of test compound were then added to the assay plate. Enzyme (2 ng/mL CDK5/GST-p25 Lot # p25/CD5-3) was added and the reaction was allowed to proceed at 37° C. for 20 minutes. Detection of the phosphorylated product was performed by adding 100 μL/well of phospho-Rb (Ser-780) antibody (Cell Signaling #9307, Beverly, Mass.) diluted 1:10,000 in antibody dilution buffer (0.1% BSA in TBS-T). After 1-hour incubation at room temperature, 100 μL/well of Eu—N1 labelled anti-rabbit antibody diluted 1:50,000 in antibody dilution buffer (PerkinElmer Life Sciences #AD0105, Boston, Mass.) was added. Incubation at room temperature then proceeded for 1 hour, followed by addition of 100 μl enhancement solution (PerkinElmer Life Sciences #1244-105, Boston, Mass.). The plate was gently agitated and after a few minutes, the fluorescence of the resulting solution was measured using the PerkinElmer EnVision 2100 (or 2102) multilabel plate reader.

T1 sequence (P35968 786-1356 limits assumed, species assumed): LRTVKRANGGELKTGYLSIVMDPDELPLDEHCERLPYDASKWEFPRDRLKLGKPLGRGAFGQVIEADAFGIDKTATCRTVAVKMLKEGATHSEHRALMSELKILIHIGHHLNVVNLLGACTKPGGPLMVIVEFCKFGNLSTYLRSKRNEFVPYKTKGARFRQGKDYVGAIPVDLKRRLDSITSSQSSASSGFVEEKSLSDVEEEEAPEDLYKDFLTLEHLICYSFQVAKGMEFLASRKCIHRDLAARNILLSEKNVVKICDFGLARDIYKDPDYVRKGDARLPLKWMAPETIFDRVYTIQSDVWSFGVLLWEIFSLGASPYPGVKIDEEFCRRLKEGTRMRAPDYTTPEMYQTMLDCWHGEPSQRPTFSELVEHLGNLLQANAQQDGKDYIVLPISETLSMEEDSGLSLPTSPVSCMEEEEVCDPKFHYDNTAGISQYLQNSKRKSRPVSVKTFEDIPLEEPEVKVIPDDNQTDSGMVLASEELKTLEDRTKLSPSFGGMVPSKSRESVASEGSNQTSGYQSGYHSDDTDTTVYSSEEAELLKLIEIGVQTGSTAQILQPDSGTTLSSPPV

inhibition at 0.3 µM [1] [%]	inhibition at 1 µM (MLK1 (GST-MLK1KD)) [%]	IC50 (CDK5/GST-p25) [nM]	IC50 (MLK1 (GST-MLK1KD)) [nM]	inhibition at 0.3 µM (MLK1 (GST-MLK1KD); 300 nM compound, read-out: MLK-1 % inhibition (@300 nM)) [%]	melting point [°C]	SMILES
7	0	–	–	–	–	O=c1[nH]nc(-c2ccccn2)c2[nH]c3ccccc3c12 [Example 4b, 4-Pyridin-2-yl-2,5-dihydro-pyridazino[4,5-b]indol-1-one]
14	0	–	–	–	–	O=c1[nH]nc(-c2cccnc2)c2[nH]c3ccccc3c12 [Example 4c, 4-Pyridin-3-yl-2,5-dihydro-pyridazino[4,5-b]indol-1-one]
18	0	3820	–	–	–	O=c1[nH]nc(-c2ccncc2)c2[nH]c3ccccc3c12 [Example 4d, 4-Pyridin-4-yl-2,5-dihydro-pyridazino[4,5-b]indol-1-one]
4	10	–	–	–	–	Cc1ccc(-c2n[nH]c(=O)c3c2[nH]c2ccccc23)o1 [Example 4e, 4-(5-Methyl-furan-2-yl)-2,5-dihydro-pyridazino[4,5-b]indol-1-one]
0	5	–	–	–	–	O=c1[nH]nc(-c2nccs2)c2[nH]c3ccccc3c12 [Example 4f, 4-Thiazo-2-yl-2,5-dihydro-pyridazino[4,5-b]indol-1-one]
0	2	–	–	–	–	Cn1ccnc1-c1n[nH]c(=O)c2c1[nH]c1ccccc12 [Example 4g, 4-(1-Methyl-1H-imidazol-2-yl)-2,5-dihydro-pyridazino[4,5-b]indol-1-one]
0	0	–	–	–	–	Cn1c(-c2n[nH]c(=O)c3c2[nH]c2ccccc23)nc2ccccc21 [Example 4h, 4-(1-Methyl-1H-benzoimidazol-2-yl)-2,5-dihydro-pyridazino[4,5-b]indol-1-one]
16	14	–	–	–	–	O=c1[nH]nc(-c2ccc(-c3ccccc3)cc2)c2[nH]c3ccccc3c12 [Example 4i, 4-Biphenyl-4-yl-2,5-dihydro-pyridazino[4,5-b]indol-1-one]
0	0	–	–	–	–	O=c1[nH]nc(-c2cnc3ccccc3n2)c2[nH]c3ccccc3c12 [Example 4j, 4-Quinoxalin-2-yl-2,5-dihydro-pyridazino[4,5-b]indol-1-one]
0	41	–	2660	–	–	O=c1[nH]nc(-c2cc3ccccc3o2)c2[nH]c3ccccc3c12 [Example 4k, 4-Benzofuran-2-yl-2,5-dihydro-pyridazino[4,5-b]indol-1-one]
9	53	–	1020	–	–	COc1ccc2[nH]c3c(-c4cc5ccccc5o4)n[nH]c(=O)c3c2c1 [Example 4l, 4-Benzofuran-2-yl-8-methoxy-2,5-dihydro-pyridazino[4,5-b]indol-1-one]
0	46	–	–	–	–	O=c1[nH]nc(-c2cc3ccccc3o2)c2[nH]c3cc4c(cc3c12)OCO4 [Example 4m, 8-Benzofuran-2-yl-6,9-dihydro-1,3-dioxa-6,7,9-triaza-cyclopenta[b]fluoren-5-one]
2	44	–	–	–	–	O=c1[nH]nc(-c2cc3ccccc3o2)c2[nH]c3cccc(OCc4ccccc4)c3c12 [Example 4n, 4-Benzofuran-2-yl-9-benzyloxy-2,5-dihydro-pyridazino[4,5-b]indol-1-one]
10	73	–	381	–	–	O=c1[nH]nc(-c2cc3ccccc3o2)c2[nH]c3ccc(OCc4ccccc4)cc3c12 [Example 4o, 4-Benzofuran-2-yl-8-benzyloxy-2,5-dihydro-pyridazino[4,5-b]indol-1-one]
14	0	–	–	–	–	O=c1[nH]nc(-c2cc3ccccc3o2)c2[nH]c3cc(OCc4ccccc4)ccc3c12 [Example 4p, 4-Benzofuran-2-yl-7-benzyloxy-2,5-dihydro-pyridazino[4,5-b]indol-1-one]
21	–	–	138	67	–	O=c1[nH]nc(-c2cc3ccccc3o2)c2[nH]c3ccc(O)cc3c12 [Example 4q, 4-Benzofuran-2-yl-8-hydroxy-2,5-dihydro-pyridazino[4,5-b]indol-1-one]
–	–	> 1000	–	–	> 300	COc1ccc(-c2n[nH]c(=O)c3c2[nH]c2ccccc23)cc1 [Example 4r, 4-(4-Methoxy-phenyl)-2,5-dihydro-pyridazino[4,5-b]indol-1-one]
–	–	657	–	–	> 300	O=c1[nH]nc(-c2ccc(O)cc2)c2[nH]c3ccccc3c12 [Example 4s, 4-(4-Hydroxy-phenyl)-2,5-dihydro-pyridazino[4,5-b]indol-1-one]
–	–	> 1000	–	–	> 300	COc1ccc2c(c1)[nH]c1c(-c3ccc(OCc4ccccc4)cc3)n[nH]c(=O)c12 [Example 4t, 4-(4-Benzyloxy-phenyl)-7-methoxy-2,5-dihydro-pyridazino[4,5-b]indol-1-one]
–	–	756	–	–	> 300	COc1ccc2c(c1)[nH]c1c(-c3ccc(O)cc3)n[nH]c(=O)c12 [Example 4u, 4-(4-Hydroxy-phenyl)-7-methoxy-2,5-dihydro-pyridazino[4,5-b]indol-1-one]
–	–	> 3000	–	–	–	O=c1[nH]nc(-c2ccncc2)c2[nH]c3ccc([N+](=O)[O-])cc3c12 [Example 4v, 8-Nitro-4-pyridin-4-yl-2,5-dihydro-pyridazino[4,5-b]indol-1-one]
0	19	–	–	–	–	Cn1c2ccccc2c2c(=O)[nH]nc(-c3cc4ccccc4o3)c21 [Example 11a, 4-Benzofuran-2-yl-5-methyl-2,5-dihydro-pyridazino[4,5-b]indol-1-one]
0	0	–	–	–	–	Cn1c2ccccc2c2c(=O)[nH]nc(-c3cc4ccccc4s3)c21 [Example 11b, 4-Benzo[b]thiophen-2-yl-5-methyl-2,5-dihydro-pyridazino[4,5-b]indol-1-one]
3	0	–	–	–	–	Cn1c2ccccc2c2c(=O)[nH]nc(-c3ccc4ccccc4c3)c21 [Example 11c, 5-Methyl-4-naphthalen-2-yl-2,5-dihydro-pyridazino[4,5-b]indol-1-one]
3	0	–	–	–	–	O=c1[nH]nc(-c2cc3ccccc3s2)c2c1[nH]c1ccccc12 [Example 14b, 1-Benzo[b]thiophen-2-yl-3,5-dihydro-pyridazino[4,5-b]indol-4-one]
1	12	–	–	–	–	O=c1[nH]nc(-c2ccc3ccccc3c2)c2c1[nH]c1ccccc12 [Example 14c, 1-Naphthalen-2-yl-3,5-dihydro-pyridazino[4,5-b]indol-4-one]
–	–	> 3000	–	–	–	O=c1[nH]nc(-c2ccc(O)cc2)c2c1[nH]c1ccccc12 [Example 14e, 1-(4-Hydroxy-phenyl)-3,5-dihydro-pyridazino[4,5-b]indol-4-one]

Source: US7732447B2, “Fused [d]pyridazin-7-ones” (Cephalon, Inc., priority 2006, dated 2010)
